Measured values: paper PMC11823630, “In vitro potentiation of tetracyclines in Pseudomonas aeruginosa by RW01, a new cyclic peptide” (Antimicrobial Agents and Chemotherapy, 2024)
Like-named read-outs stand apart in the source and are kept apart here.

Experiments:
Assay type in all cases: cell-based, Pseudomonas aeruginosa
[1] = system: P. aeruginosa 125A; assay: MIC, CLSI broth microdilution in BD Phoenix AST Broth; conditions: strain 125A
[2] = system: P. aeruginosa 125B; assay: as above; conditions: strain 125B
[3] = system: P. aeruginosa 41A; assay: as above; conditions: strain 41A
[4] = system: P. aeruginosa 41B; assay: as above; conditions: strain 41B
[5] = system: P. aeruginosa PAO1; assay: as above; conditions: for MIC: agent alone, 37°C, 18–22 h, three biological replicates
[6] = system: P. aeruginosa PAOUW; assay: as above; conditions: strain PAOUW; for MIC: agent alone, 37°C, 18–22 h, three biological replicates
[7] = system: P. aeruginosa PAOUW∆oprF; assay: as above
[8] = system: P. aeruginosa PAOΔmexR; assay: as above
[9] = system: P. aeruginosa PAOΔmexZ; assay: as above; conditions: strain PAOΔmexZ
[10] = system: P. aeruginosa PAOΔoprM; assay: as above
[11] = system: P. aeruginosa PAO1; assay: Checkerboard assay with RW01
Experimental: (§1) To assess the in vitro interaction between RW01 and tetracyclines, the checkerboard assay method was performed in 96-well microtiter plates using strains PAO1 and PAOUW. In the same way as for MIC determination, BD Phoenix AST Broth (Becton Dickinson) medium was used for bacterial growth. Minocycline and tigecycline combined with RW01 were the agents selected for the assay. A column and a row of wells in the checkerboard plate were reserved for controls of each antimicrobial individually to ensure the proper concentration of the agents. Positive and negative controls were also included. Wells in rows contained serial dilutions of RW01 starting from 512 mg/L, while those in columns varied in concentrations of the antibiotic. Inoculum at ~5 × 10⁵ CFU/mL, antibiotic, RW01, and AST broth were added to a final volume of 200 µL. Plates were incubated at 37°C for 18–22 h under aerobic conditions. Three biological replicates were obtained. Fractional inhibitory concentration index (FICI) is defined as the summatory of fractional inhibitory concentrations (FICs) from compound A: RW01, and compound B: minocycline/tigecycline. FICs were calculated as:
(§2) FIC of RW01 (FICRW01)=MIC of RW01 in combination/MIC of RW01 alone,FIC of antibiotic (FICATB)=MIC of ATB in combination/MIC of ATB alone,FICI=FICRW01 +FICATB.
(§3) FICI was interpreted as follows: synergistic effect if FICI is ≤0.5; additive effect if 0.5 < FICI ≤ 1.0; indifferent effect if 1.0 < FICI ≤ 2.0; and finally, antagonistic effect if FICI is >2.0. The average FICI considering the antibiotic MIC (no growth in any of the replicates) at different concentrations of RW01 was calculated ([28]).

[12] = system: P. aeruginosa PAOUW; assay: Checkerboard assay with RW01
Experimental: as §1, §2, §3

[13] = Pseudomonas aeruginosa, agent alone, 37°C, 18–22 h, three biological replicates
[14] = MIC of the antibiotic with fixed 100 mg/L RW01
[15] = antibiotic MIC alone vs with RW01 100 mg/L
[16] = antibiotic with RW01 at 100 mg/L
[17] = strain PAO1, antibiotic with RW01 at 100 mg/L
[18] = strain PAOUWΔoprF (printed PAOΔoprF), antibiotic with RW01 at 100 mg/L
[19] = strain PAOΔmexR, antibiotic with RW01 at 100 mg/L
[20] = strain PAOΔoprM, antibiotic with RW01 at 100 mg/L
[21] = antibiotic combined with RW01, checkerboard, AST broth, 37°C, 18–22 h, three biological replicates

`CN(C)c1ccc(O)c2c1C[C@H]1C[C@H]3[C@H](N(C)C)C(O)=C(C(N)=O)C(=O)[C@@]3(O)C(O)=C1C2=O` [Minocycline, minocycline] was tested, and the MIC [1, 13] was 8 µg/mL, the “Antibiotic MIC + RW01 100 mg/L” value [1, 14] was 1 µg/mL and the “Potentiation (fold)” value [1, 15] was 8 fold. The FICI [1, 16] was 0.320, the FICI-determined effect [1, 16] was “Synergy (synergistic effect if FICI is ≤0.5)” and the MIC [2, 13] was 8 µg/mL. The “Antibiotic MIC + RW01 100 mg/L” value [2, 14] was 1 µg/mL, the “Potentiation (fold)” value [2, 15] was 8 fold and the FICI [2, 16] was 0.320. For the same compound, the FICI-determined effect [2, 16] was “Synergy (synergistic effect if FICI is ≤0.5)”, the MIC [3, 13] was 8 µg/mL and the “Antibiotic MIC + RW01 100 mg/L” value [3, 14] was 2 µg/mL. The “Potentiation (fold)” value [3, 15] was 4 fold, the FICI [3, 16] was 0.348 and the FICI-determined effect [3, 16] was “Synergy (synergistic effect if FICI is ≤0.5)”. The MIC [4, 13] was 16 µg/mL, the “Potentiation (fold)” value [4, 15] was 8 fold and the FICI [4, 16] was 0.223. The FICI-determined effect [4, 16] was “Synergy (synergistic effect if FICI is ≤0.5)”, the MIC ([5]; Pseudomonas aeruginosa, PAO1, strain PAO1, read-out: MIC) was 8 to 16 µg/mL and the “Antibiotic MIC + RW01 100 mg/L” value ([5]; strain PAO1, MIC of the antibiotic with fixed 100 mg/L RW01) was 2 µg/mL. For the same compound, the MIC ([5]; strain PAO1) was 8 µg/mL, the “Potentiation (fold)” value ([5]; strain PAO1, antibiotic MIC alone vs with RW01 100 mg/L) was 4 fold and the FICI [5, 17] was 0.445. The FICI-determined effect [5, 17] was “Synergy (synergistic effect if FICI is ≤0.5)”, the MIC ([6]; Pseudomonas aeruginosa, read-out: MIC) was 16 µg/mL and the MIC [6] was 8 µg/mL. The “Potentiation (fold)” value [6, 15] was 8 fold, the FICI [6, 16] was 0.223 and the FICI-determined effect [6, 16] was “Synergy (synergistic effect if FICI is ≤0.5)”. The MIC ([7]; Pseudomonas aeruginosa, strain PAOUWΔoprF, agent alone, 37°C, 18–22 h, three biological replicates) was 8 µg/mL, the “Potentiation (fold)” value ([7]; strain PAOUWΔoprF (printed PAOΔoprF), antibiotic MIC alone vs with RW01 100 mg/L) was 8 fold and the FICI [7, 18] was 0.223. For the same compound, the FICI-determined effect [7, 18] was “Synergy (synergistic effect if FICI is ≤0.5)”, the “Antibiotic MIC + RW01 100 mg/L” value ([7]; strain PAOUWΔoprF, MIC of the antibiotic with fixed 100 mg/L RW01) was 1 µg/mL and the MIC ([8]; Pseudomonas aeruginosa) was 8 µg/mL. The “Antibiotic MIC + RW01 100 mg/L” value ([8]; strain PAOΔmexR, MIC of the antibiotic with fixed 100 mg/L RW01) was 1 µg/mL, the “Potentiation (fold)” value ([8]; strain PAOΔmexR, antibiotic MIC alone vs with RW01 100 mg/L) was 8 fold and the FICI [8, 19] was 0.223. The FICI-determined effect [8, 19] was “Synergy (synergistic effect if FICI is ≤0.5)”, the MIC [9, 13] was 8 µg/mL and the “Antibiotic MIC + RW01 100 mg/L” value [9, 14] was 1 µg/mL. The FICI [9, 16] was 0.160, the FICI-determined effect [9, 16] was “Synergy (synergistic effect if FICI is ≤0.5)” and the MIC ([10]; Pseudomonas aeruginosa) was 2 µg/mL. For the same compound, the “Antibiotic MIC + RW01 100 mg/L” value ([10]; strain PAOΔoprM, MIC of the antibiotic with fixed 100 mg/L RW01) was 0.5 µg/mL, the “Potentiation (fold)” value ([10]; strain PAOΔoprM, antibiotic MIC alone vs with RW01 100 mg/L) was 4 fold and the FICI [10, 20] was 0.348. The FICI-determined effect [10, 20] was “Synergy (synergistic effect if FICI is ≤0.5)”, the “interaction with RW01 (checkerboard)” value [11] was “additive” and the “average FIC Index” value [11, 21] was 0.535. The “interaction with RW01 (checkerboard)” value [12] was “synergistic” and the “average FIC Index” value [12, 21] was 0.406.
